Calls of active or inactive are those of the source.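 Rule for the calls: active = compounds giving half or more protection of infected cells from virus-caused growth loss, again on retest; inactive = the rest.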 Where a SMILES comes first, the peptide text is derived from it. The star is where a group is joined. Cbz = O=C(OCc1ccccc1)*; Bn = c1ccc(C*)cc1
Tested on: CEM cells HIV-1 protection, formazan growth assay
Test: NCI AIDS Antiviral Assay
Conditions: for IC50: measured here: growth of uninfected CEM cells
Procedure, shortened: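 Soluble formazan readout of cell growth; CEM cells ± HIV-1; 5 drug concs. ≥50% protection → retest; ≥50% again = moderately active; reproducible 100% = confirmed active.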

| SMILES | EC50 | IC50 | outcome |
| --- | --- | --- | --- |
| CCCc1cc(=O)oc2c3c(c4c(c12)OC(N)=C(C#N)C4c1ccccc1)O[C@H](C)[C@@H](C)C3=O (some centres undefined) | > 200 µM | 8.71 µM |  |
| COc1ccc2c(c1OC)C[N+]1(C)CCc3cc4c(cc3C1C2)OCO4 (centres undefined) | > 158 µM | > 158 µM |  |
| CC(SC(C)C(=O)N/N=C/c1c[nH]c2ccccc12)C(=O)N/N=C\c1c[nH]c2ccccc12 (centres undefined) | > 200 µM | 120 µM |  |
| O=C1/C(=C/c2ccc(Cl)cc2)CSC/C1=C\c1ccc(Cl)cc1 | > 200 µM | 2.63 µM |  |
| CCC(=O)C1=C(OC(C)=O)C2Cc3c(n(C)c4ccccc34)C(C1)N2C (centres undefined) |  |  | inactive |
| Nc1ncnc2c1ncn2CC1OC(CO)C(CO)O1 (centres undefined) | > 891 µM | > 891 µM |  |
| COc1cccc(/C=C2\S/C(=N/Nc3nc(-c4ccc([N+](=O)[O-])cc4)cs3)NC2=O)c1O | > 200 µM | 29.5 µM |  |
| Cc1nc(-c2cc3ccccc3oc2=O)cs1 |  |  | inactive |
| COC(=O)CC1(O)C(C=C(C)C)C(C(=O)OC)C(=O)C(C(=O)OC)C1C(=O)OC (centres undefined) | > 200 µM | > 200 µM |  |
| O=C1N=NC(=O)N1c1ccccc1 | > 200 µM | > 200 µM |  |
| [Ni+2].[O-]/C(=N\N=C/c1cccc(F)c1)c1ccncc1.[O-]/C(=N\N=C\c1cccc(F)c1)c1ccncc1 | > 100 µM | 38 µM |  |
| COc1ccc(NS(=O)c2c(C)cc(C)cc2C)cc1 (centres undefined) | > 200 µM | 12 µM |  |
| COc1cc2c(cc1O)C(Cc1ccc(Oc3cc(C[C@H]4c5cc(OC)c(OC)cc5CCN4C)ccc3OC)cc1)N(C)CC2 (some centres undefined) |  |  | inactive |
| O=C(c1ccco1)N(C(=O)N1CCC(c2ccccc2)CC1)c1ccccc1 | > 200 µM | 29.5 µM |  |
| Cc1cc2nnc(-c3cccc([N+](=O)[O-])c3)n2c2nnnn12 | > 200 µM | > 200 µM |  |
| Oc1cc(O)c2c(c1)OC(c1ccc(O)c(O)c1)C(OC1(c3cc(O)c(O)c(O)c3)Oc3cc(O)cc(O)c3C(O)C1O)C2 (centres undefined) | > 200 µM | 11.5 µM |  |
| CC(C)CCC[C@@H](C)[C@H]1CC[C@H]2[C@@H]3CC[C@H]4C[C@@H](CCC=C(c5cc(Cl)c(O)c(C(=O)O)c5)c5cc(Cl)c(O)c(C(=O)O)c5)CC[C@]4(C)[C@H]3CC[C@]12C | 37.2 µM | 295 µM |  |
| COC(=O)C1C=CCON2CCc3c(n(C)c4ccccc34)C12 (centres undefined) | > 22.9 µM | > 22.9 µM |  |
| Cc1ccc(C=C(C(=O)O)C(=O)O)cc1 | > 1200 µM | > 1200 µM |  |
| O=C(/C=C\c1ccc(Cl)c(Cl)c1)c1cccs1 | > 200 µM | 10.2 µM |  |
| CC(=O)NC1C(OCc2ccccc2)OC(CO)C(O)C1OC(C)C(=O)NC(C(=O)NC(CCC(=O)NCCCCNc1c2ccccc2nc2cccc([N+](=O)[O-])c12)C(N)=O)C(C)C (centres undefined) | > 100 µM | 1.12 µM |  |

| SMILES | EC50 | IC50 | outcome |
| --- | --- | --- | --- |
| CC(=O)OCC1OC(n2ccc(=O)[nH]c2=O)C(OC(C)=O)C(OC(C)=O)C1OC(C)=O (centres undefined) | > 562 µM | > 562 µM |  |
| O=c1[nH]c2ccccc2c2c1CCO2 |  |  | inactive |
| Cc1c(N=Nc2ccccc2)c(-c2ccccc2)n(C2OC(CO)C(O)C(O)C2O)c(=S)c1C#N (centres undefined) | > 200 µM | 15.1 µM |  |
| COc1ccccc1C1SCC(=O)N1c1ccc(-n2c(-c3ccccc3)nc3ccccc3c2=O)cc1 (centres undefined) | > 200 µM | 135 µM |  |
| CCC(CCCN)Nc1cc(OC)cc2c(C)ccnc12 (centres undefined) | > 200 µM | 7.41 µM |  |
| CC(O)C1(CNc2cc(Cl)nc(N)n2)CCC1 (centres undefined) | > 200 µM | 182 µM |  |
| Cc1ccc(Nc2nc3nc[nH]c3c(=O)[nH]2)cc1CO | > 200 µM | > 200 µM |  |
| COC(=O)C(=O)C(C(=O)C=C(C)C)C(=O)C(=O)Nc1ccc(Cl)cc1C (centres undefined) |  |  | inactive |
| CN(C)c1ncnc2c1Cc1ccccc1C(=O)N2C | 60.3 µM | 407 µM |  |
| O=C1c2ccccc2C(=O)c2c1ccc(O)c2O | > 72.4 µM | 42.7 µM |  |
| Cc1cc2c(=O)cc(-c3ccc(O)cc3)oc2c(C(=O)O)c1C |  |  | inactive |
| CCCCCCCCCC(O)CC(=O)c1c(O)cccc1O (centres undefined) | > 200 µM | 32.4 µM |  |
| COc1cc(C2SC(N)=Nc3c2c(C)nn3C(=O)c2ccc(Cl)cc2)cc(OC)c1OC (centres undefined) | > 200 µM | > 200 µM |  |
| COc1ccc(S(=O)(=O)Cc2ccc(C(=O)O)cc2)cc1 | > 813 µM | > 813 µM |  |
| O=C1OC(=O)c2c1c(-c1ccccc1)cn2-c1ccc(Cl)cc1 |  |  | inactive |
| CC(=S)N(c1ccccc1)c1ccccc1 | > 200 µM | 158 µM |  |
| CN(C)CCONC(=O)C12CC3CC(CC(C3)C1)C2 |  |  | inactive |
| CN(C)CCCNC(=O)CNC(=O)c1cc(NC(=O)c2cc(NC(=O)c3cc(NC(=O)CCNC(=O)c4cc(NC(=O)c5cc(NC(=O)c6nccn6C)cn5C)cn4C)cn3C)cn2C)cn1C |  |  | inactive |
| CCn1c2ccccc2c2ccc3c(c21)C(=O)C=CC3=O | > 26.3 µM | > 26.3 µM |  |
| COC(=O)CN1CCN(c2cccc3c2CCCC3)CC1 | > 200 µM | 64.6 µM |  |
| CC1C=C[C@H](Sc2ccccc2)CC[C@@]1(C)O (some centres undefined) | > 251 µM | 22.4 µM |  |

| SMILES | EC50 | IC50 | outcome |
| --- | --- | --- | --- |
| CC1Cn2c(Cc3ccccc3)nnc2S1 (centres undefined) |  |  | inactive |
| COc1ccc(C2CC(c3c(O)ccc4ccccc34)=NN2)cc1OC (centres undefined) | > 200 µM | 5.5 µM |  |
| CCc1c(C)c2cc(N)ccc2[nH]c1=O | > 200 µM | 29.5 µM |  |
| C[C@]12c3c4cc(NC(=O)C(=O)NCc5ccc(-c6ccccn6)nc5)cc3Oc3cc(NC(=O)C(=O)NCc5ccc(-c6ccccn6)nc5)cc(c31)OC1C=C(NC(=O)C(=O)NCc3ccc(-c5ccccn5)nc3)C=C(O4)C12 (some centres undefined) | > 100 µM | 21.4 µM |  |
| Cc1c(C(=O)C/C(=N/NC(=O)C[n+]2ccccc2)C(=O)Nc2ccccc2)[n+](=O)c2ccccc2n1O | > 17.8 µM | > 17.8 µM |  |
| COc1c(-c2ccccc2)oc2c(ccc3occc32)c1=O | > 95.5 µM | > 95.5 µM |  |
| C1=C2/CC[C@H](Sc3ccccc3)C2C2(CCCCC/1)OCCO2 (some centres undefined) | > 200 µM | 38.9 µM |  |
| CCOC(=O)c1c(N2CCCC2)ncn(Cc2ccccc2)c1=S | > 200 µM | > 200 µM |  |
| O=C1C=CC(=O)c2c1ccc1c2[nH]c2ccccc21 |  |  | inactive |
| Cc1nc2ccc(S(=O)(=O)NS(=O)(=O)c3ccc(-c4ccccc4)cc3)cc2c(=O)n1NS(=O)(=O)c1ccc(-c2ccccc2)cc1 | > 200 µM | 170 µM |  |
| O=C(O)C(=O)Cc1ccc(O)cc1 | > 200 µM | > 200 µM |  |
| CC1(C)CC(Br)(Cc2ccccc2)C(=O)c2ccccc21 (centres undefined) | > 200 µM | 7.94 µM |  |
| COC(=O)C(Cc1ccc(O)cc1)NC(=O)C(COCc1ccccc1)NC(=O)OCc1ccccc1 (centres undefined) (Cbz-Ser(Bn)-Tyr-OMe; configuration not given here) | > 200 µM | 30.2 µM |  |
| COc1cc(C2SCC(=O)N2NC(=O)c2ccc(NC(C)=O)cc2)cc(OC)c1OC (centres undefined) | > 58.9 µM | > 58.9 µM |  |
| C=C(C)CCC[C@@H](C)C1CCC2(C)[C@@H]3CCC4C(C)(C)[C@@H](O)CC[C@@]45C[C@@]35CC[C@]12C (some centres undefined) | > 200 µM | 46.8 µM |  |
| COc1ccc(NC(C)=O)cc1N1C(=O)/C(=C\c2cc(OC)c(OC)c(OC)c2)S(=O)(=O)C1c1ccccc1 (centres undefined) | > 200 µM | 91.2 µM |  |
| O=C(CC1Sc2ccccc2NC1=O)Nc1ccccc1[N+](=O)[O-] (centres undefined) | > 724 µM | 70.8 µM |  |
| CC#CCCCC1(C)CCNC1=S (centres undefined) | > 200 µM | > 200 µM |  |
| S=c1[nH]c(=S)c2cc(Sc3ccc4[nH]c(=S)[nH]c(=S)c4c3)ccc2[nH]1 | > 200 µM | > 200 µM |  |
| CCOC(=O)c1c(NC(=O)Nc2ccccc2)c(C(N)=O)c2n1CCCCC2 | > 100 µM | > 100 µM |  |
| CCC[CH2][Sn]([CH2]CCC)([O]C(=O)C(OC)c1ccccc1)[O]C(=O)C(OC)c1ccccc1 (centres undefined) | > 6.76 µM | 0.182 µM |  |

| SMILES | EC50 | IC50 | outcome |
| --- | --- | --- | --- |
| CSc1nc(-c2ccccc2)c(C#N)c(=O)[nH]1 |  |  | inactive |
| Cc1ccc([N+](=O)[O-])c2c(NCCCN(C)C)c3ccccc3nc12 | > 0.2 µM | 0.0513 µM |  |
| COC(=O)C12C3C4C1C1C2C3C41C(=O)NC(C)(C)CC(=O)O (centres undefined) | > 200 µM | > 200 µM |  |
| CC(C)(C)[Si](C)(C)OCC1OC(n2ccc(=O)[nH]c2=O)C(O[Si](C)(C)C(C)(C)C)C12OC2C(=O)NO (centres undefined) | > 20 µM | 1.45 µM |  |
| O=c1oc2ccccc2c(O)c1Sc1c(O)c2ccccc2oc1=O |  |  | inactive |
| Nc1nc(Cl)c(C=O)c(NCC2(CO)CC(CCc3ccccc3)C2)n1 (centres undefined) | > 200 µM | 3.98 µM |  |
| O=C(Nc1ccccc1[N+](=O)[O-])C(=O)C(C(=O)c1ccccc1-c1ccccc1)C1OC(=O)c2ccccc21 (centres undefined) | > 50.1 µM | 25.7 µM |  |
| CC1=CC(=O)Nc2cncnc2N1 | > 77.6 µM | > 77.6 µM |  |
| CN(C)CCCOC(=O)C(c1ccccc1)C1(O)CCSCC1 (centres undefined) | > 200 µM | > 200 µM |  |
| CC(C)CC1=C(C(=O)c2ccoc2)CC(C)C1 (centres undefined) | > 200 µM | > 200 µM |  |
| CC(=O)C(CN(C(C)C)C(C)C)C(c1ccccc1)c1c(O)c2ccccc2oc1=O (centres undefined) | > 85.1 µM | 75.9 µM |  |
| COc1ccc(C(=O)/C=C/c2ccc(OCC(=O)O)cc2)cc1 | > 200 µM | 69.2 µM |  |
| C=CCOCn1cc(C)c(=O)[nH]c1=O | > 200 µM | > 200 µM |  |
| O=Nc1ccc(C=C2C(=O)C=CC2=O)cc1 | > 200 µM | 10.2 µM |  |
| CC(=O)NC1CC2Oc3ccc(C)cc3C(C)(O2)C1O (centres undefined) |  |  | inactive |
| [N-]=[N+]=Nc1ccc2c(c1)Sc1ccccc1N2CCCCN1CCN(Cc2ccc(C(=O)c3ccc(CSCC(N)C(=O)O)cc3)cc2)CC1 (centres undefined) | > 200 µM | 32.4 µM |  |
| CN(C)c1cc2c3ccccc3ccc2c2ccccc12 | > 7.41 µM | > 7.41 µM |  |
| CCOc1ccccc1N1C(=O)C(=O)C(c2nc3ccccc3s2)C(=O)C1=O | > 18.2 µM | > 18.2 µM |  |
| O=C(Nc1nc(C23CC4CC(CC(C4)C2)C3)cs1)c1cc2ccc(O)cc2oc1=O | > 200 µM | 7.41 µM |  |
| Oc1[nH]c(=S)sc1/C=C1\C=Nc2ccccc21 | > 501 µM | 195 µM |  |
| O=C1C2N=NN(c3ccccc3)C2C(=O)N1c1ccccc1 (centres undefined) | 41.7 µM | > 200 µM |  |
